How the values were obtained:
[1] = system: RAW 264.7 macrophage cells; test: Griess assay, LPS-induced NO production; assay type: cell-based; settings: LPS (1 µg/mL), 24 h
Description: Griess assay (Promega) was performed under manufacturer’s instruction to measure the concentration of nitrite after inducing the inflammatory response in RAW 264.7 macrophage cells by LPS treatment. The well-known PPAR selective agonists, such as WY14643 (PPARα), GW501516 (PPAR-β/δ), and rosiglitazone (PPARγ), were used as positive controls.

PPAR-β/δ = system: PPAR-β/δ; set-up: method as in PMID 27802237; settings: dual agonist of PPAR-β/δ and PPARγ; cited from earlier work

Row | SMILES | inhibition of NO production compared between DTMB and known PPAR agonists [1] | selectivity to PPAR-β/δ (PPAR-β/δ) [fold]
1 | Cc1cc(SCc2sc(-c3ccc(C(F)(F)F)cc3)nc2C)ccc1OCC(=O)O [GW501516, reference compound] | better inhibitor than DTMB | –
2 | CCc1oc(-c2ccc(OC)cc2)nc1CCOc1ccc2c(c1)CC[C@H]2CC(=O)[O-].[Na+] [T3D-959] | – | 15
